According to publication PMC8302598, “Rapid discovery of self-assembling peptides with one-bead one-compound peptide library” (Nature Communications, 2021):
“Also recorded” adds a separate entry of the source.

Assays:
Format in all cases: physicochemical
[1] = Fluorescent-activation screening assay on OBOC beads (NBD); conditions: for Bead fluorescence in methanol: NBD N-capped peptide on TentaGel S beads, 20 min; for Fluorescence (beads): peptide N-terminally capped with NBD on TentaGel S beads, in water, fluorescence microscope
Text: It is well known that Aβ16–20 peptide sequence KLVFF can self-assemble into nanofibers in water. We, therefore, chose it as a model peptide to test our screening strategy and used KAAGG as the non-assembling negative control. These control peptides, N-terminally capped with NBD were synthesized with standard Fmoc-chemistry, and TentaGel S resin beads as solid support but without any cleavable linker. After side-chain deprotection, the beads were thoroughly washed with DMF, which was replaced stepwise with water or methanol and then examined under a fluorescent microscope. […] This is expected as the hydrophobicity-sensitive fluorescence dye NBD would fluoresce brightly under hydrophobic condition, in this case, methanol. In water, we expect fluorescent signal emitted from non-sequestered NBD to diminish, unless it is buried inside a hydrophobic environment such as within peptide aggregates or β-sheets formed by KLVFF peptides.
(§1) Once the screening method has been validated with our model KLVFF peptide, a totally random pentapeptide library with 19[5] permutations (cysteine was omitted from the library) was constructed using our previously published methods (Supplementary Fig. 3)[23]. Again, TentaGel S resin (loading of 0.31 mmol/g) was used as the solid support. The pentapeptides in the library were N-terminally capped with NBD. […] The positive bead with an intense fluorescent signal (pointed with a solid arrow) was noted. The rest of the beads were considered negative or weak positive beads. From a total of approximately 100 000 beads screened, we selected a total of eight strongest fluorescent positive beads and four dark beads as negative beads. The peptides were then resynthesized in soluble form and purified by high-performance liquid chromatography (HPLC) for testing (Supplementary Figs. 4–12). The amino acid sequences of the eight self-assembling pentapeptides are FTISD, ITSVV, YFTEF, ISDNL, LDFPI, FAGFT, FGFDP, and FFVDF. Not unexpectedly, of the 40 amino acids in these eight pentapeptides, 50% are hydrophobic residues, predominated by Phe (11 Phe, 4 Ile, 3 Val, and 2 Leu). For the remaining 20 amino acids, six are acidic residues (5 Asp and 1 Glu) and seven are neutral and hydrophilic (4 Thr and 3 Ser). The rest are 2 Pro, 2 Gly, 1 Tyr, 1 Asn, and 1 Ala. All eight peptides have at least two hydrophobic residues. Six out of the eight peptides have one negatively charged residue (Asp or Glu). The remaining two peptides are neutral. […] For the Pro containing pentapeptides, LDFPI and FGFDP, the Pro residue, which promotes peptide turns, resides at the fourth and fifth positions, but not in the middle. Not unexpectedly, all the four randomly selected negative non-assembling peptides (RITTR, PLVKA, PFTTR, and QIMRW) have very different sequences, and contain at least one positive charged amino acid.
The OBOC pentapeptide libraries (19[5]) were built using Fmoc strategy SPPS (solid-phase peptide synthesis) (Supplementary Fig. 3). TentaGel S Resin (named N-beads with loading 0.31 mmol/g) was used as the solid phase support. The pentapeptide sequence of X1 X2 X3 X4 X5 was constructed in the library, in which X1−X5 represents either Ala, Asp, Glu, Phe, Gly, His, Ile, Lys, Leu, Met, Asn, Pro, Gln, Arg, Ser, Thr, Val, Trp, and Tyr residues. During the synthesis of OBOC library, solid support beads were mixed and split equally in each cycle, then different amino acids were added, separately, the process was repeated four times. The synthesis of peptides was used anhydrous DMF as solvent. The Fmoc group was removed by 20% (v/v) piperidine in DMF and the deprotection time was 10 min twice. During the coupling step, the HBTU (4 mM) and Fmoc-amino acid (4 mM) were dissolved in DMF containing NMM (0.4 mM). The coupling time was 50 min. Qualitative Fmoc deprotection and coupling were confirmed by ninhydrin test. All the above experiments were carried out in the solid phase peptide synthesis vessels with sieves in it. […]

[2] = as above; conditions: peptide beads incubated with free dye in water for 2 hours
[3] = Turbidity test (transmittance spectra); conditions: 20 μM peptide in water
Protocol: To further confirm the peptide assembling in water, the solutions of pentapeptide were diluted to 20 μM for turbidity test.

[4] = Self-assembly of resynthesized soluble pentapeptides; conditions: self-assembly under aqueous environment
Text: as §1
To estimate the propensity of the identified peptides to self-assemble, the critical micelle concentrations (CMC) of the eight positive peptides and four negative peptides were determined, and the results are shown in Table 1 and Supplementary Figs. 13, 14. The CMC of all the eight positive peptides were detectable and found to range between 8.4 and 14.8 μM, indicating the propensity for these peptides to self-assemble under aqueous environment. […] Hydrophobicity of peptides can be predicted by the value of GRAVY[28] with more negative value for more hydrophilic peptides. Of the four negative assembling peptides, two have a negative GRAVY value. […] Experimental testing, such as the screening strategy described in this work, is needed. This is because multiple factors, including hydrophobicity, hydrogen-bonding, electrostatic interactions, and positions of each residue within the peptides, all contribute to the assembling and final morphology of the self-assembled nano-structure. […]

[5] = Appearance and TEM of 30 mM peptide in water
Protocol: To further characterize these self-assembling peptides, we selected two positive peptides (FFVDF and YFTEF) and a negative control peptide (PFTTR) for the following studies: Fourier transform infrared (FT-IR) spectroscopy, UV−Vis spectra, and transmission electron microscopy (TEM).
(§2) Pentapeptides monomers were dissolved in DMSO at a concentration of 5.0 mM, followed by quick injection into water at a volume ratio of 1:99 for DMSO and H2O to obtain the nanomaterials solution (50 μM). For 30 mM pentapeptide solution, the pentapeptide was dissolved in water and sonicated for 3 min.
(§3) The pentapeptide solution with the concentration of 20 μM (10 μL) was placed dropwise onto a copper mesh for 5 min, then most of the liquid was removed through a filter paper. Ten microliters of uranyl acetate solution were employed to stain the samples for 5 min, followed by drying the spare liquid with the filter. Finally, the copper mesh was washed with 10 μL of deionized water, which was blotted after staining and drying at room temperature. All of the samples were observed by TEM (Tecnai G2 20 S-TWIN) at an accelerating voltage of 200 kV.

[6] = TEM morphology and size of peptide nano-assemblies over time; conditions: same peptide preparation in water with 1% DMSO
Text: Self-assembling peptides with good biocompatibility may be used to construct nanocarriers for drug delivery. We recently reported the use of FFVLK, the reverse sequence of KLVFF, as a self-aggregating β-sheet forming domain for the delivery of HER2 targeting peptides for successful treatment of breast cancer in xenograft models. Such FFVLK containing peptide is able to self-assemble into nanoparticles. Upon intravenous administration, the FFVLK-nanoparticle was able to transform into nanofibrillar network when encountering HER2 at the tumor sites. To investigate the morphology of the nano-assembly formed by the eight self-assembling peptides, we dissolved each of these peptides in DMSO (5 mM) and then diluted them 100X with water at a final peptide concentration of 50 μM to induce spontaneous self-assembly. Each sample was fixed immediately after peptide solution preparation and at 4 h time point for subsequent TEM processing and analysis. As clearly shown in Fig. 4a, all eight self-assembling peptides initially formed some nanostructures: nanoparticles for ITSVV, YFTEF, ISDNL, LDFPI, FAGFT, FGFDP, and FTISD; nanofibers for FFVDF. […] LDFPI (8 nm) maintained the particulate morphology without changing of diameter in 4 h. FFVDF formed nanofibers at 0 and 4 h. […] Time-dependent size variations of pentapeptides in water were further confirmed by DLS spectra (Supplementary Fig. 18). The initial diameters of nanoparticles formed by seven pentapeptides were larger than that observed by TEM, probably due to hydration radius. The size of the nanostructure increased over time, correlating well with the morphologic transformation. […] Circular dichroism (CD) was used to monitor the secondary structures of the nano-assembly of the eight self-assembling peptides over time (Supplementary Fig. 20).
as §2, §3

Assembly [4] | Nanostructures detected by TEM (negative controls) [6] | Substance | Fluorescence (beads) [1] | further results
– | – | (NBD)-KAAGG-beads [non-assembling negative control KAAGG N-terminally capped with NBD on TentaGel S resin beads, reference compound] | did not | Bead fluorescence in methanol [1]: bright fluorescence
– | – | (NBD)-KLVFF-beads [positive control: Aβ16–20 peptide KLVFF N-terminally capped with NBD on TentaGel S resin beads, reference compound] | fluoresced brightly; also recorded: fluorescence-on | Bead fluorescence in methanol [1]: bright fluorescence
– | – | (NBD)-LIVGD-beads [additional positive control LIVGD N-capped with NBD on beads, reference compound] | fluorescence-on | –
– | – | (NBD)-NFGAIL-beads [additional positive control NFGAIL N-capped with NBD on beads, reference compound] | fluorescence-on | –
– | – | KAAGG-beads [negative control peptide KAAGG on beads, probed with free reporter dye] | – | Bead fluorescence with free dye (ThT, Nile Red or NBD) [2]: fluorescent off
No | no nanostructures were detected | PFTTR [randomly selected negative non-assembling pentapeptide] | Off | Transmittance at 400 nm [3]: 100%; Nanostructure under TEM ([5]; 30 mM in H2O): no nanostructures observed; Appearance of peptide in water ([5]; 30 mM in water, sonicated 3 min): completely clear solution
No | no nanostructures were detected | PLVKA [randomly selected negative non-assembling pentapeptide] | Off | –
No | no nanostructures were detected | QIMRW [randomly selected negative non-assembling pentapeptide] | Off | –
No | no nanostructures were detected | RITWI [randomly selected negative non-assembling pentapeptide] | Off | –
